Assay in all cases: NCI anticancer screen, dose series, 48 h
Assay [1] relates to CAKI-1 renal.
For assay [2], the system named is DU-145 prostate.
Assay [3] has as its system MCF7 breast.
Assay [4] has as its system MDA-N.
Assay [5] relates to OVCAR-4 ovarian.
Assay [6] deals with RXF 393 renal.
Assay [7] has as its system SF-268 CNS.
Assay [8] concerns SF-295 CNS.
Assay [9] relates to SF-539 CNS.
Assay [10] relates to UACC-62 melanoma.
Assay [11] has as its system SK-MEL-2 melanoma.

The values that follow come from PubChem BioAssay (NCI).

Structures are written as SMILES.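 Five concentrations, 48 hours, 96-well plates. At the GI50, growth is halved. TGI: total growth inhibition.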 Where a SMILES comes first, the peptide text is derived from it. The star is where a group is joined. Boc = CC(C)(C)OC(=O)* Bounds are passed on as bounds.

`CN(C)Cc1cc(N=Nc2ccc(Cl)c(Cl)c2)ccc1O`: the TGI was found to be 25.4 µM in [1]; 17.6 µM in [2]; 18.1 µM in assay [3]; 23.5 µM in assay [4]; 20.8 µM in [5]; 10.7 µM in assay [6]. Further, the TGI in assay [7] amounted to 18.7 µM; in [8], 31.9 µM; in assay [9], 38.5 µM; in assay [10] it was 19.4 µM.
Regarding `N#CC(c1ccccc1)c1cccc2ccccc12` (centres undefined), the TGI in assay [1] is 52.1 µM; in assay [2], over 100 µM; in assay [3] it was 92.4 µM; in assay [5], over 100 µM; in [7] it was 98.8 µM; in assay [8], over 100 µM. Also, the results for the TGI in assay [9], in [11] and in assay [10] were over 100 µM, 56.2 µM and over 100 µM, respectively.
With `CN(C)c1ccc(/C=C2\N=C(c3ccccc3)N(c3nc4c(Cl)cc(Cl)cc4s3)C2=O)cc1`, the TGI in [1] is over 100 µM; in assay [2], over 100 µM; in assay [3], over 100 µM; in [4], 56.8 µM; in assay [5], over 100 µM; in [7], over 100 µM. Further, the TGI in assay [8], in assay [9], in [11] and in [10] was over 100 µM each time.
For the molecule `CC(NC(=O)c1ccc(OP(=O)(OCC2=CC(=O)c3ccccc3C2=O)N(C)CCCCCl)cc1)c1ccc(OCC2CCCCC2)c(C(N)=O)c1` (centres undefined), the TGI came out at 35.5 µM in [1]; 16.7 µM in assay [2]; 24.9 µM in assay [3]; 13 µM in assay [4]; 26.2 µM in assay [7]; 19.2 µM in assay [8]. Moreover, the values for the TGI in [9], in assay [11] and in [10] were 28.5 µM, 30.2 µM and 21.4 µM, respectively.
Turning to `COc1cccc(-c2cc(=O)c3cc(C)cnc3[nH]2)c1`, the TGI in [1] was over 100 µM; in assay [2] it was over 100 µM; in [3] it was over 100 µM; in [4] it was 0.0213 µM; in [5] it was over 100 µM; in [7] it was over 100 µM. The TGI was over 100 µM in assay [8], over 100 µM in assay [9], 7.45 µM in assay [11] and over 100 µM in assay [10].
For `CC1=C(C#N)S(=O)(=O)c2c(oc(C)c2C)N1`, the TGI in assay [1], in [2], in assay [3], in assay [4], in [5] and in assay [7] was over 100 µM in each case. Besides, the TGI in assay [8], in assay [9], in [11] and in [10] was over 100 µM each time.
Turning to `COc1cc(C(C#N)NNC(=O)c2ccccc2O)ccc1O` (centres undefined), the TGI in assay [1] is over 100 µM; in [5], over 100 µM; in assay [6] it was 6.3 µM; in assay [7], over 100 µM; in [8] it was over 100 µM; in assay [9], 8.73 µM. Besides, the TGI in [11] is over 100 µM; in assay [10], 5.22 µM.
As for `COc1ccc(CN=CN/C(C#N)=C(\N)C#N)cc1OC`, the TGI in [1], in [2], in assay [3], in assay [4], in assay [5] and in assay [7] was over 100 µM each time. Also, the TGI in assay [8], in assay [9], in [11] and in assay [10] was over 100 µM throughout.
For the molecule `CCCCNC(=S)Nc1nc(C(=O)NNS(=O)(=O)c2ccccc2)cs1`, the TGI in assay [1] is 69.5 µM; in assay [2], over 100 µM; in [3], over 100 µM; in assay [7], over 100 µM; in assay [8], over 100 µM; in assay [9], over 100 µM. The TGI is 43.8 µM in assay [11] and 59.2 µM in assay [10].
For the molecule `CSc1n[n+](C)cc(N)c1N`, the TGI in [1], in assay [3], in [4], in assay [5], in assay [8] and in assay [9] was over 100 µM in each case. In addition, the TGI in assay [11] and in assay [10] was over 100 µM in each case.
For `COc1ccc(CNc2nc3ccccc3nc2-c2cccs2)cc1`, the TGI in assay [1] was 46.3 µM; in assay [2], over 100 µM; in assay [3], over 100 µM; in [5], over 100 µM; in assay [6] it was over 100 µM; in assay [7] it was over 100 µM. The TGI in [8], in [9] and in assay [10] was over 100 µM throughout.
As to `Cc1cc2ccccc2c[n+]1CC(=O)CC([O-])(C(F)(F)F)C(F)(F)F`, the TGI in assay [1], in assay [2], in assay [4], in assay [5], in [6] and in assay [7] was over 100 µM each time. Further, the TGI in assay [8], in [9], in [11] and in assay [10] was over 100 µM in each case.
Take `Cc1nc2c(Br)cc(Br)cc2c(=O)n1-c1ccccc1N`: the TGI in assay [1] is 96.2 µM; in [2], over 100 µM; in [3], over 100 µM; in [4], over 100 µM; in [5] it was over 100 µM; in [7] it was over 100 µM. Further, the TGI is over 100 µM in [8], over 100 µM in [9], 58.1 µM in [11] and over 100 µM in assay [10].
In the case of `Nc1cc(CO)cc(Nc2c3ccccc3nc3occc23)c1`, the TGI was 94.9 µM in assay [1]; over 100 µM in [2]; 66 µM in assay [3]; over 100 µM in assay [4]; 54.5 µM in [5]; 87.3 µM in assay [7]. For the same molecule, the TGI was over 100 µM in [8], 69.6 µM in assay [9], 73.9 µM in [11] and 86.8 µM in assay [10].
In the case of `O=C1CC(c2cccc(Cl)c2)n2cccc21` (centres undefined), the TGI in assay [1], in assay [2], in assay [3], in assay [5], in assay [6] and in assay [7] was over 100 µM in each case. Moreover, the TGI in [8], in [9], in assay [11] and in [10] was over 100 µM in each case.
In the case of `O=C(CSc1nc2ccc(I)cc2c(=O)n1Cc1ccccc1)Nc1ccc(Br)cc1`, the TGI in assay [1] is 20.2 µM; in [2] it was over 100 µM; in [3], over 100 µM; in assay [5], over 100 µM; in assay [6] it was over 100 µM; in [7], 28 µM. Moreover, the TGI is over 100 µM in assay [8], 6.1 µM in assay [9], over 100 µM in assay [11] and over 100 µM in assay [10].
Regarding `CCCCCCCCCC[C@@H](O)[C@@H]1CC[C@@H]([C@@H]2CC[C@@H]([C@@H](O)CCCCCCCCCCC(O)CC3=CC(C)OC3=O)O2)O1` (some centres undefined), the TGI in assay [2], in assay [3], in assay [5], in [6], in assay [7] and in assay [8] was over 10 µM in each case. The TGI in [9] and in assay [10] was over 10 µM each time.
Consider `CC(Nc1cc(Cl)cc(Cl)c1)c1ccncc1` (centres undefined), for which the TGI in assay [1] is 52.4 µM; in assay [3] it was 34.3 µM; in assay [4], 45.6 µM; in assay [5] it was over 100 µM; in assay [6], 71.3 µM; in assay [7] it was 51.9 µM. In addition, the values for the TGI in assay [8] and in [9] were 43.4 µM and 40.8 µM, respectively.
As to `CCCCCCCCOCC1S(=O)(=O)OCCOS1(=O)=O`, the TGI in assay [1], in [2], in [4], in [5], in [6] and in assay [7] was over 100 µM in each case. Further, the TGI in assay [8], in assay [9], in assay [11] and in assay [10] was over 100 µM in each case.
Consider `CC(=O)Nc1ccc(Nc2nc(=O)[nH]c(=O)[nH]2)cc1`, for which the TGI in assay [1], in assay [2], in [3], in assay [4], in assay [5] and in [7] was over 100 µM in each case. For the same molecule, the TGI in assay [8], in assay [9], in assay [11] and in assay [10] was over 100 µM throughout.
As for `COc1cc(C2c3cc4c(cc3OC(N3CCOCC3)C2C)OCO4)cc(OC)c1O` (centres undefined), the TGI in assay [1] was 26.1 µM; in assay [2], over 100 µM; in assay [3], over 100 µM; in assay [5], over 100 µM; in assay [6], 85.4 µM; in assay [7] it was over 100 µM. Moreover, the TGI in assay [8] was 15.8 µM; in assay [9], 22 µM; in assay [11], 46.3 µM; in [10], over 100 µM.
In the case of `CC(NC(=O)C(NC(=O)OC(C)(C)C)C(C)C)C(=O)NCC(=O)O` (stereo not drawn) (Boc-Val-Ala-Gly-OH; configuration not given here), the TGI in assay [1], in assay [2], in [4], in assay [6], in assay [7] and in [8] was over 100 µM each time. Further, the TGI in assay [9], in [11] and in assay [10] was over 100 µM throughout.
Take `COC(=O)C(Cc1ccccc1)NC(=O)CNC(=O)CSc1nnc(COc2ccc(Cl)cc2)n1-c1ccccc1` (centres undefined): the TGI in assay [1] came to 25.3 µM; in assay [2] it was 33 µM; in assay [3] it was 35.5 µM; in [5] it was 21.7 µM; in [6], 33.1 µM; in [7], 33 µM. Further, the TGI stood at 31.7 µM in assay [8], 34.3 µM in [9], 33.8 µM in assay [11] and 28.6 µM in assay [10].
Take `O=C(c1ccco1)N(C(=S)N1CCN(c2ccccc2)CC1)c1ccccc1`: the TGI in assay [1], in assay [5], in [6], in assay [7], in assay [8] and in [9] was over 100 µM each time. The TGI in assay [11] and in assay [10] was over 100 µM in each case.
On to `COc1ccc(-c2cn3ccnc3c(-c3ccc4ncn(C5CCCCC5)c4c3)n2)cc1`, for which the GI50 was 0.757 µM in assay [1]; 1.07 µM in [2]; 0.64 µM in assay [3]; 2.38 µM in assay [7]; 0.944 µM in assay [11]; 0.434 µM in assay [10]. Also, the TGI in assay [1], in [2], in assay [3], in [7], in [11] and in assay [10] was over 100 µM throughout.
For the molecule `COC(=O)c1c(O)ccc2c1c1c(n2C)C(=O)c2ccccc2C1=O`, the TGI in [1] was 92.5 µM; in assay [2], 72.7 µM; in assay [3], over 100 µM; in [5], 80.6 µM; in assay [6], 42 µM; in assay [7], 43.6 µM. Moreover, the TGI is 65.6 µM in assay [8], 65.1 µM in assay [9] and over 100 µM in [11].
In the case of `CC(NCCS(=O)(=O)O)C(=O)O` (centres undefined), the TGI in assay [1], in assay [3], in assay [5], in [6], in assay [7] and in [8] was over 100 µM throughout. For the same molecule, the TGI in assay [9], in [11] and in assay [10] was over 100 µM throughout.
Turning to `CCN(CC)CCNc1ccc(N=Nc2ccc(S(N)(=O)=O)cc2)c2ccccc12`, the TGI in [1] was found to be 31.2 µM; in assay [2], 28.2 µM; in assay [3] it was 47 µM; in [5], 30.9 µM; in [6] it was 12.7 µM; in assay [7], 37.8 µM. For the same molecule, the TGI was found to be 15.1 µM in [8], 12.8 µM in assay [9], 28.2 µM in assay [11] and 25.7 µM in assay [10].
